Measured values published in patent US20230381190A1, “Methods and Treatment for Complex Lymphatic Malformations” (priority 2022, published 2023).
Where “and” joins values, the source holds several entries; their conditions need not be identical. Equal values may be shown once. Read-outs that look alike come from different tables or passages of the source.

Tests used:
[1] = Modeling and simulation of human PK for dose selection; settings: total daily dose 1.0 mg, divided every 12 hours, 50th percentile
From the text: The doses proposed for this study were selected after modeling and simulation of the human PK of CERC-006 using data reported by Mateo et al (Mateo J, Olmos D, Dumez H, et al. A first in man, dose-finding study of the mTORC1/mTORC2 inhibitor OSI-027 in patients with advanced solid malignancies. Br J Cancer. 2016114(8):889-896) and comparing the PK/PD response for sirolimus in patients with complicated vascular anomalies published by Adams et al (Adams et al, Pediatrics (2016)) and Mizuno et al (Mizuno T, Emoto C, Fukuda T, et al. Model-based precision dosing of sirolimus in pediatric patients with vascular anomalies. Eur J Pharm Sci. 2017; 109S:S124-S131). The goal was to estimate doses that would produce effective trough plasma concentrations of CERC-006 in relation to pharmacological target potency (mTOR complex inhibition) using the PK/PD response achieved by sirolimus in this patient population as a benchmark. […] The additional dose proposed, 2.0 mg/day, is necessary to ensure potential therapeutic benefit while preserving safety and providing a range of plasma concentrations to guide future PK/PD modeling efforts.

[2] = cited from earlier work
[3] = cited from earlier work; remark: listed apart in the source
[4] = linear extrapolation from simulated PK profile, listed as CERC-006
[5] = regardless of relationship, 123 subjects

COc1cccc2cc(-c3nc([C@H]4CC[C@H](C(=O)O)CC4)n4ncnc(N)c34)[nH]c12 [AVTX-006, trans-4-[4-Amino-5-(7-methoxyl-1H-indol-2-yl)-imidazo[5,1-f][1,2,4]triazine-7-yl]-cyclohexanecarboxylic acid]
Free trough concentration above the in vitro IC50 for mTOR complex inhibition [1]: approximately 2 fold
Free trough plasma concentration [1, 4]: ~4 ng/mL and ~10 nM
Total trough plasma concentration [1, 4]: approximately 27 ng/mL and ~66 nM
Estimated terminal half-life (t1/2) ([2]; 240 mg dose in S2 (weekly dose schedule)): approximately 14 hours
Dose proportionality of area under the curve (AUC) ([2]; S1 and S2, slope close to 1): dose proportional
Dose proportionality of increases in Cmax ([2]; S1 and S3): apparently proportional to dose
Subjects with TEAEs considered drug regimen-related ([3]; 92 of 123 subjects, by the investigator): 74.8%
Drug regimen related TEAE anorexia ([3]; 123 subjects): 21.1%
Drug regimen related TEAE fatigue ([3]; 123 subjects): 44.7%
Drug regimen related TEAE increased blood creatinine ([3]; 123 subjects): 26.0%
Drug regimen related TEAE nausea ([3]; 123 subjects): 40.7%
Drug regimen related TEAE vomiting ([3]; 123 subjects): 18.7%
Subjects with related SAEs ([3]; Fifteen subjects): 12.2%
Subjects with serious adverse events (SAEs) ([3]; Fifty of 123 subjects treated): 40.6%
Maximum tolerated dose (MTD) ([3]; S1: once daily for 3 consecutive days every 7 days): 120 mg
Deaths, subjects ([3]; S1): 48.2%
Maximum tolerated dose (MTD) ([3]; S2: once weekly, escalation stopped at 240 mg every week): not reached
Deaths, subjects ([3]; S2): 25.6%
Maximum tolerated dose (MTD) ([3]; S3: once daily dosing): 30 mg
Dose at which renal toxicity was dose limiting ([3]; S3: once daily): 40 mg
Deaths, subjects ([3]; S3): 14.3%
Deaths considered drug related ([3]; all schedules): None
Observed dose limiting toxicities (DLTs) ([3]; all schedules): fatigue, renal, and cardiac events
Related SAE anorexia ([3]; in vivo): 1 subject
Related SAE blood creatinine increased ([3]; in vivo): 2 subjects
Related SAE bone pain ([3]; in vivo): 1 subject
Related SAE cardiac failure congestive ([3]; in vivo): 1 subject
Related SAE cataract subcapsular ([3]; in vivo): 1 subject
Related SAE diarrhea ([3]; in vivo): 1 subject
Related SAE fatigue ([3]; in vivo): 3 subjects
Related SAE myocardial infarction ([3]; in vivo): 1 subject
Related SAE nausea ([3]; in vivo): 3 subjects
Related SAE pneumonia ([3]; in vivo): 1 subject
Related SAE renal failure ([3]; in vivo): 1 subject
Related SAE stress cardiomyopathy ([3]; in vivo): 1 subject
Related SAE supraventricular tachycardia ([3]; in vivo): 1 subject
Related SAE urticaria ([3]; in vivo): 1 subject
Related SAE vomiting ([3]; in vivo): 2 subjects
TEAE abdominal pain upper, subjects [3, 5]: 10.6%
TEAE abdominal pain, subjects [3, 5]: 17.1%
TEAE anemia, subjects [3, 5]: 13.8%
TEAE anorexia, subjects [3, 5]: 40.7%
TEAE back pain, subjects [3, 5]: 14.6%
TEAE blood creatinine increased, subjects [3, 5]: 28.5%
TEAE constipation, subjects [3, 5]: 25.2%
TEAE cough, subjects [3, 5]: 14.6%
TEAE diarrhea, subjects [3, 5]: 22.8%
TEAE dyspnea, subjects [3, 5]: 17.1%
TEAE fatigue, subjects [3, 5]: 65.0%
TEAE headache, subjects [3, 5]: 14.6%
TEAE hypokalemia, subjects [3, 5]: 12.2%
TEAE nausea, subjects [3, 5]: 60.2%
TEAE vomiting, subjects [3, 5]: 33.3%
TEAE weight decreased, subjects [3, 5]: 13.8%
